Experimental data reported in patent US20110112308A1 (NOVARTIS AG, priority 2006, published 2011).
Converted amounts (≈) assume the structure as drawn. One block for each molecule: values may come before it.

Tests used:
Assay type in all cases: physicochemical
[1] = Stability of mixtures with excipients; conditions: for stability with all excipient mixtures tested, in words: after 2 weeks at 50° C./75% r.h.
Procedure: (§1) All samples were prepared/diluted to a concentration of 0.2 mg/mL in methanol prior to analysis by HPLC. A freshly prepared sample of each salt was used as the reference standard for external standard calibration analysis.

[2] = pH of saturated solution or 1% suspension in water; conditions: room temperature
Procedure: pH Value: The pH at room temperature of a saturated solution or 1% suspension of the drug substance in water was recorded.

[3] = Solubility, 24-hour equilibration at room temperature; conditions: organic solvent or mixture, thermodynamic from solid
Procedure: Aqueous Solubility: A carefully weighted amount (20-50 mg) of sample is dissolved in 1 ml of solvent with 24-hour equilibration at room temperature. The solubility was determined either gravimetrically or by UV-VIS spectrometry. The pH of the clear solution was also measured. However, the difficulty of determining salt solubilities in water should be stressed, since upon dissolution dissociation to the free form is possible, which affects both the solubility and the pH. It's not unlikely that attempts to make solutions of a salt at a concentration well below the reported solubility of the salt to be unsuccessful (for a full discussion see: M. Pudipeddi, A. T. M. Serajuddin, D. J. W. Grant, and P. H. Stahl in “Handbook of Pharmaceutical Salts Properties Selection and Use” page 27 and references therein).

[4] = Intrinsic dissolution rate, rotation disk method; conditions: for Intrinsic Dissolution Rate: 37° C., 200 r.p.m.
Procedure: Intrinsic Dissolution: […] […] Pellets of the other salts remained intact for at least several minutes enabling the determination of the intrinsic dissolution rate. Dissolution rate studies were performed using the rotation disk method ([…] Instrument). A single rotation speed of 200 r.p.m. was used to dissolve drug substance into a 500 mL vessel at 37° C. The solution was continuously pumped through a UV cell measurement and returned to the dissolution vessel.

Solid-state stability = conditions: for Bulk stability (XRPD): 1 week
Procedure: as §1

[5] = Solution stability (HPLC); conditions: for stability characteristics, in words: both in solution and in the solid state; for Unstressed (% Area): unstressed baseline of the stability study
Procedure: as §1

[6] = pH of saturated solution or 1% suspension in water; conditions: In pH = 6.8 buffer
[7] = Mixture 1: 50% PVP + 50% Crospovidone, 50° C./75% r.h., 2 weeks
[8] = Mixture 2: 50% Starch 1500 + 5% MCC 102, 50° C./75% r.h., 2 weeks
[9] = Mixture 3: 5% PVP + 5% Crospovidone + 10% Starch 1500 + 80% MCC 102, 50° C./75% r.h., 2 weeks
[10] = Mixture 4: 99% Lactose + 1% BHT/BHA, 50° C./75% r.h., 2 weeks
[11] = Mixture 5: 99% Mannitol + 1% BHT/BHA, 50° C./75% r.h., 2 weeks
[12] = Mixture 6: 50% Mannitol + 47% HPCLH21 + 1% BHT/BHA + 2% Magnesium Stearate, 50° C./75% r.h., 2 weeks
[13] = Mixture 7: 50% Cetyl Alcohol + 49% HPCLH21 + 1% Magnesium Stearate, 50° C./75% r.h., 2 weeks
[14] = Mixture 8: 100% PEG 3350, 50° C./75% r.h., 2 weeks
[15] = Water, free base pellet disintegrated, not true intrinsic rate
[16] = Bulk stability, 2 weeks, 50° C.
[17] = Bulk stability, 2 weeks, 50° C./20% water
[18] = Bulk stability, 2 weeks, 50° C./75% r.h.
[19] = Light study, 1200 kLux (300-800 nm)
[20] = 2 mg/mL in 100 mM lactate buffer, pH 3.5
[21] = 2 mg/mL in methanol, 1 week at 50° C.
[22] = 2 mg/mL in water, 1 week at 50° C.
[23] = 2 mg/mL, 100 mM lactate buffer pH 3.5, 1 week at 50° C., external standard
[24] = 2% in 0.5% HPMC 4000, 1 day at RT
[25] = 2% in 0.5% Klucel HF, 1 day at RT
[26] = 2% in 0.8% Tween 80, 1 day at RT
[27] = 5% solution, 1 day at RT (diluted 1:100 in pH 6.8 buffer)
[28] = 2 mg/mL, 100 mM lactate buffer pH 3.5, 1 week at 50° C.

- % DS (drug substance) [1, 7]: 98.8 % area
- % DS (drug substance) [1, 8]: 99.4 % area
- % DS (drug substance) [1, 9]: 99.3 % area
- % DS (drug substance) [1, 10]: 99.4 % area
- % DS (drug substance) [1, 11]: 99.2 % area
- % DS (drug substance) [1, 12]: 99.4 % area
- % DS (drug substance) [1, 13]: 99.5 % area
- % DS (drug substance) [1, 14]: 98.6 % area
- % DS (drug substance) ([1]; Standard, freshly prepared): 99.5 % area
- stability with all excipient mixtures tested, in words [1]: very good stability
- pH of saturated solution [2]: 8.7
- solubility at 24 h ([3]; ethyl acetate, 25 °C): 5600 µg/mL (≈ 16 mM)
- solubility at 24 h ([3]; Acetone, approx. at 25° C.): 6500 µg/mL (≈ 18.6 mM)
- solubility at 24 h ([3]; Ethanol, approx. at 25° C.): 1500 µg/mL (≈ 4.29 mM)
- solubility at 24 h ([3]; Methanol, approx. at 25° C.): 2300 µg/mL (≈ 6.58 mM)
- Intrinsic Dissolution Rate [4, 15]: 0.15 mg min^−1 cm^−2
- Bulk stability (XRPD) (Solid-state stability; 80° C.): Changed to mod. C
- Bulk stability (XRPD) (Solid-state stability; 80° C./75% r.h.): no change
- assay (Solid-state stability; [16]): [97.76]
- assay (Solid-state stability; [17]): [99.48]
- assay (Solid-state stability; [18]): [98.61]
- CL (appearance) (Solid-state stability; [19]): B (B = slight discoloration)
- assay (Solid-state stability; [19]): [99.39]
- pH of initial mixture [5, 20]: 3.60
- assay [5, 21]: [100.2]
- pH of initial mixture ([5]; 2 mg/mL in water): 9.59
- CL (appearance) [5, 22]: A↓
- assay [5, 22]: [98.73]
- assay [5, 23]: [97.21]
- assay ([5]; 2% in 0.5% CMC, 1 day at RT): [98.07]
- assay [5, 24]: [100.4]
- assay [5, 25]: [99.28]
- assay [5, 26]: [98.91]
- CL (appearance) [5, 27]: A↓
- assay [5, 27]: [100.4]
- stability characteristics, in words [5]: very good stability
- Unstressed (% Area) [5]: 99.41% Area
- pH of saturated solution [6]: 6.91
Molecule: Cc1[nH]c2ccccc2c1CCNCc1ccc(/C=C/C(=O)NO)cc1 [Free base, N-hydroxy-3-[4-[[[2-(2-methyl-1H-indol-3-yl)ethyl]amino]methyl]phenyl]-2E-2-propenamide]

- % DP (total degradation products) [1, 7]: 1.2 % area
- % DS (drug substance) [1, 7]: 98.8 % area
- % DP (total degradation products) [1, 8]: 1.3 % area
- % DS (drug substance) [1, 8]: 98.7 % area
- % DP (total degradation products) [1, 9]: 1.3 % area
- % DS (drug substance) [1, 9]: 98.7 % area
- % DP (total degradation products) [1, 10]: 1.3 % area
- % DS (drug substance) [1, 10]: 98.7 % area
- % DP (total degradation products) [1, 11]: 1.3 % area
- % DS (drug substance) [1, 11]: 98.7 % area
- % DP (total degradation products) [1, 12]: 1.3 % area
- % DS (drug substance) [1, 12]: 98.7 % area
- % DP (total degradation products) [1, 13]: 1.3 % area
- % DS (drug substance) [1, 13]: 98.7 % area
- % DP (total degradation products) [1, 14]: 1.3 % area
- % DS (drug substance) [1, 14]: 98.7 % area
- % DP (total degradation products) ([1]; Standard, freshly prepared): 0.6 % area
- % DS (drug substance) ([1]; Standard, freshly prepared): 99.4 % area
- stability with all excipient mixtures tested, in words [1]: very good stability
- pH of saturated solution [2]: 6.07
- intrinsic dissolution (rate), in words [4]: good
- Intrinsic Dissolution Rate ([4]; HCl 0.1N): 1.16 mg min^−1 cm^−2
- Intrinsic Dissolution Rate [4, 15]: 0.38 mg min^−1 cm^−2
- Bulk stability (XRPD) (Solid-state stability; 80° C.): no change
- Bulk stability (XRPD) (Solid-state stability; 80° C./75% r.h.): no change
- % DP (total degradation products) (Solid-state stability; [16]): 0.84 % area
- assay (Solid-state stability; [16]): [99.48]
- % DP (total degradation products) (Solid-state stability; [17]): 1.61 % area
- assay (Solid-state stability; [17]): [97.07]
- % DP (total degradation products) (Solid-state stability; [18]): 1.36 % area
- assay (Solid-state stability; [18]): [97.66]
- % DP (total degradation products) (Solid-state stability; [19]): 0.82 % area
- assay (Solid-state stability; [19]): [100.4]
- pH of initial mixture [5, 20]: 3.58
- % DP (total degradation products) [5, 21]: 0.86 % area
- CL (appearance) [5, 21]: A↓
- assay [5, 21]: [100.5]
- pH of initial mixture ([5]; 2 mg/mL in water): 6.82
- % DP (total degradation products) [5, 22]: 1.21 % area
- CL (appearance) [5, 22]: A↓
- assay [5, 22]: [98.91]
- % DP (total degradation products) [5, 28]: 1.53 % area
- CL (appearance) [5, 28]: A↓*
- assay [5, 23]: [96.89]
- % DP (total degradation products) ([5]; 2% in 0.5% CMC, 1 day at RT): 0.62 % area
- CL (appearance) ([5]; 2% in 0.5% CMC, 1 day at RT): A↓↓
- assay ([5]; 2% in 0.5% CMC, 1 day at RT): [79.98]
- % DP (total degradation products) [5, 24]: 0.54 % area
- assay [5, 24]: [97.54]
- % DP (total degradation products) [5, 25]: 0.58 % area
- assay [5, 25]: [96.39]
- % DP (total degradation products) [5, 26]: 0.54 % area
- assay [5, 26]: [96.60]
- % DP (total degradation products) [5, 27]: 0.71 % area
- CL (appearance) [5, 27]: A↓
- assay [5, 27]: [98.39]
- stability characteristics, in words [5]: very good stability
- Unstressed (% Area) [5]: 99.62% Area
- pH of saturated solution [6]: 5.57
Molecule: 2:1 L-tartarate salt of N-hydroxy-3-[4-[[[2-(2-methyl-1H-indol-3-yl)ethyl]amino]methyl]phenyl]-2E-2-propenamide
